From ChEMBL document CHEMBL1201862, “PubChem BioAssay data set” (2004)
Calls of active or inactive are those of the source.

Experiments:
[1] = molecular target: T1, Neuropeptide Y receptor type 2 (Homo sapiens, UniProt P49146); test: NPY-Y2 antagonist potency, selectivity check, dose response, counter-screen for NPY-Y1 antagonist project, cell-based (AID 1278); assay type: functional
T1 sequence (P49146 whole entry): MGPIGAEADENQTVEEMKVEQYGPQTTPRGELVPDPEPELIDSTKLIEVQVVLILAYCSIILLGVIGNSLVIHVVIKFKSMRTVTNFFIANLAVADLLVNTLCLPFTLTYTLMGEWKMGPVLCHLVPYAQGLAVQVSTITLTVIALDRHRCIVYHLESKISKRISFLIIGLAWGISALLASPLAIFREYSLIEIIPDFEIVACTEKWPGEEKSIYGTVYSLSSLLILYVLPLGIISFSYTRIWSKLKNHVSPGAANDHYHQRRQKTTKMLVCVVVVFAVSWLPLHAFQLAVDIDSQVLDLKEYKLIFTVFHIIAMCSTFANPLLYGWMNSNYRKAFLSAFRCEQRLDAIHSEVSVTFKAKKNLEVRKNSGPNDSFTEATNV

[2] = molecular target: T2, Neuropeptide Y receptor type 1 (Homo sapiens, UniProt P25929); test: NPY-Y1 receptor antagonist potency, dose response, cell-based (AID 1277); assay type: functional
T2 sequence (P25929 whole entry): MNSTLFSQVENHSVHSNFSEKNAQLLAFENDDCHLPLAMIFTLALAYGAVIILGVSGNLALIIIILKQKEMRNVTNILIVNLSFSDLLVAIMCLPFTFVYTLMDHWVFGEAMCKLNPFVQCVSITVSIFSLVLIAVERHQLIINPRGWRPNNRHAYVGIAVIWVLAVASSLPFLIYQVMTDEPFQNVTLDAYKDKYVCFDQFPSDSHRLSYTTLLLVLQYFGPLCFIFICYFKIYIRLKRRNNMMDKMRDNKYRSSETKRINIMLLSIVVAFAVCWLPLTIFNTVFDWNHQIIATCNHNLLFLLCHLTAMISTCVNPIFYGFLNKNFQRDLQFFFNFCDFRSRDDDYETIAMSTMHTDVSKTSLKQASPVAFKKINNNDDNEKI

Estrogen receptor beta = Estrogen receptor beta (Homo sapiens, UniProt Q92731);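 further: recombinant ER-beta bound to coactivator SRC1 peptide in presence of estradiol agonist; inhibitors block coactivator peptide binding and lower the FRET signal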
HT-1080 = test: cytotoxicity in HT1080 fibrosarcoma cells, cell-based, fluorescence readout (AID 620); assay type: functional; conditions: Homo sapiens
[3] = molecular target: Luciferin 4-monooxygenase (Photinus pyralis, UniProt P08659); test: Counter Screen for Luciferase-based Assay Positives. [Related pubchem assays: 620, 618, 411 ]
NADPH oxidase 1 = NADPH oxidase 1 (Homo sapiens, UniProt Q9Y5S8); assay type: functional, cell-based;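 further: Cell-based assay with luminescence read-out, IC50 derived from inhibitor dose-response curves; intracellular ROS from endogenous NOX1 in intact HT29 colon cancer cells; potency of inhibitors that lower the ROS luminescence signal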
[4] = molecular target: T3, Heat shock factor protein 1 (Mus musculus, UniProt P38532); test: inhibition of MG132-induced HSE-luciferase signal, confirmation, cell-based, NIH3T3, luminescence, dose retest (AID 2382); assay type: functional;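 further: NIH3T3 fibroblasts with HSF1-driven luciferase reporter stressed by proteasome inhibitor MG132; luminescence from HSF1-driven luciferase expression after 8 hours of MG132 stress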
T3 sequence (P38532 whole entry): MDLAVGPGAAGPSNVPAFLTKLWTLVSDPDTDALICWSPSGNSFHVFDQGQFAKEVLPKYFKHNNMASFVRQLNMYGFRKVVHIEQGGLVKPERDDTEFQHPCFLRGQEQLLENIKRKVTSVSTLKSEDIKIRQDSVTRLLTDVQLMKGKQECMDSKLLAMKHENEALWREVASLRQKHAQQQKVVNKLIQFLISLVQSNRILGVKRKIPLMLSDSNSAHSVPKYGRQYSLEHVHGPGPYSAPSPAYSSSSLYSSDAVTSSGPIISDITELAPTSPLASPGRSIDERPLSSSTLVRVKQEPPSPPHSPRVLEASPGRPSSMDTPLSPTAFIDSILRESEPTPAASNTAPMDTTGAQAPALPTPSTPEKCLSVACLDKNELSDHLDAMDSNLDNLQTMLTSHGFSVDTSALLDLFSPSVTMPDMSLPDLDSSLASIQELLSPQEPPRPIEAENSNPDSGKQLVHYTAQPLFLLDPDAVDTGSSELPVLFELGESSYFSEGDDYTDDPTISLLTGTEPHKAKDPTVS

[5] = molecular target: T2, Neuropeptide Y receptor type 1; assay type: functional
[6] = inhibitors of Bluetongue virus cytopathic effect, confirmation, arbovirus, BSR cells (AID 1250); assay type: functional;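 further: protection from viral cytopathic effect measured as cell viability by ATP luminescence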
[7] = NIH-3T3 fibroblast cytotoxicity, dose response, cytotoxicity control, cell-based, fluorescence, Alamar Blue, secondary assay (AID 2327); assay type: functional;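 further: NIH-3T3 mouse fibroblasts cultured with fluconazole at 8 µg/mL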
[8] = C. albicans growth with fluconazole, confirmation, fluorescence, retest (AID 2467); assay type: functional, cell-based
[9] = cytotoxicity in HEK-293T cells, dose response, cytotoxicity control for BCR NF-kB inhibitor project, luminescence, B-cell screen hits (AID 489021); assay type: functional, cell-based;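 further: HEK-293T cells carrying an NF-kB luciferase reporter; cells exposed to compound for about 14 hours before viability readout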
INS1 = test: beta cell apoptosis inhibitors, cytokine rescue, dose response, luminescence, retest (AID 449756); assay type: functional, cell-based; conditions: Rattus norvegicus;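 further: cell death triggered by IL-1 beta plus TNF-alpha plus IFN-gamma mixture; protective hits raise ATP signal compared with cytokine alone wells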
[10] = molecular target: T4, Microphthalmia-associated transcription factor (Homo sapiens, UniProt O75030); test: TRPM1 promoter luciferase signal decrease, dose response, MITF inhibitor project, cell-based, SK-MEL-5, cherry-picked, set 3 (AID 493073); assay type: functional
T4 sequence (O75030 whole entry): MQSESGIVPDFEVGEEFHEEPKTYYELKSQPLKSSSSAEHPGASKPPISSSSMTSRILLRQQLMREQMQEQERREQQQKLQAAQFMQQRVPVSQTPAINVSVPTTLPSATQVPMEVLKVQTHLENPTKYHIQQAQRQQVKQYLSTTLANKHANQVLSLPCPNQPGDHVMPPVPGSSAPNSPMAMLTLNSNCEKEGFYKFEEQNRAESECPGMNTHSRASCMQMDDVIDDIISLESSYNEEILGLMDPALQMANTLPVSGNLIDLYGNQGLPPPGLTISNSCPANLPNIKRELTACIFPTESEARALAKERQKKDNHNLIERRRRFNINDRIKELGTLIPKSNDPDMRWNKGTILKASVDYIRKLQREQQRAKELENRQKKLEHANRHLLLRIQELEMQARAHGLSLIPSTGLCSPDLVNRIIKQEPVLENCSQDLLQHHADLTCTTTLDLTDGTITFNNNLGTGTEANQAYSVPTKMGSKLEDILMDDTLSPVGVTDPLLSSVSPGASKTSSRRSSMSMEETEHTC

[11] = molecular target: Neurotensin receptor type 1 (Homo sapiens, UniProt P30989); assay type: functional;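 further: Image-based confirmatory dose-response assay measuring agonist activity at NTR1; NTR1-expressing U2OS osteosarcoma cells imaged for beta-arrestin GFP spot formation; agonist potency where compounds increase beta-arrestin recruitment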
Bcl-2-related protein A1 [12] = molecular target: T5, Bcl-2-related protein A1 (Mus musculus, UniProt Q07440); test: Bfl-1 binding inhibitors, SAR follow-up, biochemical, fluorescence polarization (AID 1070)
T5 sequence (Q07440 whole entry): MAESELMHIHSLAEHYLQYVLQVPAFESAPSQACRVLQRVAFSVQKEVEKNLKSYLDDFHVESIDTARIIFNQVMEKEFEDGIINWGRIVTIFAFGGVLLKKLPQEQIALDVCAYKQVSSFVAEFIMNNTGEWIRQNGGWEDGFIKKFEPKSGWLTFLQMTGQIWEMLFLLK

[13] = molecular target: Glyceraldehyde-3-phosphate dehydrogenase (Homo sapiens, UniProt P04406)
Bcl-2-related protein A1 [14] = molecular target: T5, Bcl-2-related protein A1; test: Bfl-1 inhibitors blocking BH3 peptide binding, confirmation, biochemical, TR-FRET, mouse Bfl-1 (AID 621);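 further: TR-FRET binding of GST-Bfl-1 to FITC-labelled Bid peptide via terbium antibody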
Estrogen receptor = molecular target: T6, Estrogen receptor (Homo sapiens, UniProt P03372); test: potentiators of ERα–SRC-1 coactivator binding, dose response, biochemical, TR-FRET, ERα LBD (AID 737)
T6 sequence (P03372 whole entry): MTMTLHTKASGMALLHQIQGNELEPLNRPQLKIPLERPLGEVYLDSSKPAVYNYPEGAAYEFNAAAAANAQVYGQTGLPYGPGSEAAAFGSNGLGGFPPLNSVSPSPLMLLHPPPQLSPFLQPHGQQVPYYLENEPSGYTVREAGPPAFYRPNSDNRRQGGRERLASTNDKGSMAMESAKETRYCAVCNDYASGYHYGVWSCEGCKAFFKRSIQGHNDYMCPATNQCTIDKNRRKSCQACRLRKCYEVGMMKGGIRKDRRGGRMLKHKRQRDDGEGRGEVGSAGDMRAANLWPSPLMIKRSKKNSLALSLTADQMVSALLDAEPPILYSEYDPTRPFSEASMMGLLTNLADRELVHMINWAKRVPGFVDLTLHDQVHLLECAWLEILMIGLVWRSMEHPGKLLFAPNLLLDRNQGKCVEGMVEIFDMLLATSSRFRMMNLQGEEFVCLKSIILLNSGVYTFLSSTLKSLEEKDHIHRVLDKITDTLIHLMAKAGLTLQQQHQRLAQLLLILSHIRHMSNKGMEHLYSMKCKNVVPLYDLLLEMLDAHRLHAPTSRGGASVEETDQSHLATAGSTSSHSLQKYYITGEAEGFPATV

[15] = Jurkat T cell cytotoxicity, dose response, cytotoxicity control for P. falciparum gametocyte viability project, luminescence (AID 1117277); assay type: functional, cell-based;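 further: potency reflects loss of cellular ATP meaning fewer viable cells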
[16] = P. falciparum late gametocyte killing, dose response, luminescence (AID 1117278); assay type: functional, cell-based;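 further: gametocytes exposed to compound for 24 hours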
[17] = molecular target: Acyl-homoserine lactone acylase PvdQ (Pseudomonas aeruginosa (strain LESB58), UniProt Q9I194); test: P. aeruginosa PvdQ acylase inhibitors, dose response, biochemical, fluorescence, plate reader and imaging, cherry-picks (AID 493231)
[18] = molecular target: Melanin-concentrating hormone receptor 1 (Homo sapiens, UniProt Q99705); test: Fluorescence-based counterscreen for antagonists of the G-protein coupled receptor 7 (GPR7): cell-based high throughput dose response assay to identify antagonists of the melanin-concentrating hormone receptor 1 (MCHR1).; assay type: functional
[19] = molecular target: T7, Neuropeptides B/W receptor type 1 (Homo sapiens, UniProt P48145); test: Fluorescence-based dose response cell-based high throughput screening assay to identify antagonists of the G-protein coupled receptor 7 (GPR7). [Related pubchem assays: 1952 (Screening assay (GPR7 antagonists).), 1880 (Summary AID.)]; assay type: functional
T7 sequence (P48145 whole entry): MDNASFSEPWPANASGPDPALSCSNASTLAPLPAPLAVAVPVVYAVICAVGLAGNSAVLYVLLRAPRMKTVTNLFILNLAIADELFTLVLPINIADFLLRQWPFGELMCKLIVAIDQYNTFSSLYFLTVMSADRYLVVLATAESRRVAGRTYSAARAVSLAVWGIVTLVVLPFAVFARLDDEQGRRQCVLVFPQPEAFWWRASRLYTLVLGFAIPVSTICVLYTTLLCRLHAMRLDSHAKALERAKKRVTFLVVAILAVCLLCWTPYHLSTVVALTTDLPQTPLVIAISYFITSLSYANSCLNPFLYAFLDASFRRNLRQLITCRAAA

[20] = system: Streptococcus sp. 'group A'; test: growth inhibition of control SK(-) GAS strain, dose response, counter-screen for streptokinase expression inhibitor project, luminescence, kanamycin, BacTiterGlo, confirmation (AID 1900); assay type: functional, organism-based
Streptococcus = test: Group A Streptococcus viability loss, dose response, counter-screen for streptokinase expression inhibitor project, luminescence, BacTiterGlo (AID 1915); assay type: functional, organism-based;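 further: potency for reduction of bacterial viability or growth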
[21] = Luminescence-based counterscreen assay for KLF5 inhibitors: dose response cell-based high throughput screening assay to identify cytotoxic compounds using the IEC-6 intestinal epithelial cell line. [Related pubchem assays: 1700 (Primary screen.), 1834 (Confirmation screen.), 1858 (Summary AID.), 1905 (Counterscreen.)]; assay type: functional

Glyceraldehyde-3-phosphate dehydrogenase, sequence (P04406 whole entry): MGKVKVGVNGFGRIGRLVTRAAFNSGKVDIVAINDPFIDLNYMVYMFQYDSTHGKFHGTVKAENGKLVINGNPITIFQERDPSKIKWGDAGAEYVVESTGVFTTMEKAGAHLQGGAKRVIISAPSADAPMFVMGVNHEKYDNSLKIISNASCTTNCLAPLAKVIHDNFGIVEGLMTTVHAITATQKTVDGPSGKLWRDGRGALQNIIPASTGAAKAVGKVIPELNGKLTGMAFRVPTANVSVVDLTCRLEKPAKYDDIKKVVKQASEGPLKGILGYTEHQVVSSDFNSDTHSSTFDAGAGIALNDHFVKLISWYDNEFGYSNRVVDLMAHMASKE
NADPH oxidase 1, sequence (Q9Y5S8 whole entry): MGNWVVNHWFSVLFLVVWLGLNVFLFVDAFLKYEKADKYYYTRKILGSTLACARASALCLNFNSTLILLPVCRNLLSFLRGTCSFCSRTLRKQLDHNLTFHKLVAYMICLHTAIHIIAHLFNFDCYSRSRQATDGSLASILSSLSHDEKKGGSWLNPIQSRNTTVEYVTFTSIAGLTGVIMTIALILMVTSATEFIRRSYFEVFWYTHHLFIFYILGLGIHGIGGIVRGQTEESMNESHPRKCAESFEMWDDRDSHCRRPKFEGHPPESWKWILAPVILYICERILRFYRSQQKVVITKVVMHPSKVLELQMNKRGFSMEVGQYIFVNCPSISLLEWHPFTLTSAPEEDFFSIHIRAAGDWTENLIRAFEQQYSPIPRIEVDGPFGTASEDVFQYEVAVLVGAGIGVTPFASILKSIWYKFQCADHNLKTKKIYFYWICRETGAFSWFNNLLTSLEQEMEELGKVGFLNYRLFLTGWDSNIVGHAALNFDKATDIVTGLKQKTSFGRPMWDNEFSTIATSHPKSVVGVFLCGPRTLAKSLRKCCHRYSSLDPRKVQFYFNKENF
Estrogen receptor beta, sequence (Q92731 whole entry): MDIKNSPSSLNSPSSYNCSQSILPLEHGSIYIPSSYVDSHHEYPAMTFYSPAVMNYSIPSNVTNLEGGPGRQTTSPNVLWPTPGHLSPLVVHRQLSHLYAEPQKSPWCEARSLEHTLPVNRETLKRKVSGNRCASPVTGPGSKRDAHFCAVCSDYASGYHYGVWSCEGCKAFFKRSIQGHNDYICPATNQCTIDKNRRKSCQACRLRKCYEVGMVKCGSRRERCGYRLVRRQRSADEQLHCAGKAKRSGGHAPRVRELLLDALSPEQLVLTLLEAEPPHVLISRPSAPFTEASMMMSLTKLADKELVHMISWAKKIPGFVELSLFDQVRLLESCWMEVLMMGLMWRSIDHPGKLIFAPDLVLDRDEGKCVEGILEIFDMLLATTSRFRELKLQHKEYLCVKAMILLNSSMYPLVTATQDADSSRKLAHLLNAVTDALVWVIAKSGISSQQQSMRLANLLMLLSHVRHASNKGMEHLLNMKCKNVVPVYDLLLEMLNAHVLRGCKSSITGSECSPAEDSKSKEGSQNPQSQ
Melanin-concentrating hormone receptor 1, sequence (Q99705 whole entry): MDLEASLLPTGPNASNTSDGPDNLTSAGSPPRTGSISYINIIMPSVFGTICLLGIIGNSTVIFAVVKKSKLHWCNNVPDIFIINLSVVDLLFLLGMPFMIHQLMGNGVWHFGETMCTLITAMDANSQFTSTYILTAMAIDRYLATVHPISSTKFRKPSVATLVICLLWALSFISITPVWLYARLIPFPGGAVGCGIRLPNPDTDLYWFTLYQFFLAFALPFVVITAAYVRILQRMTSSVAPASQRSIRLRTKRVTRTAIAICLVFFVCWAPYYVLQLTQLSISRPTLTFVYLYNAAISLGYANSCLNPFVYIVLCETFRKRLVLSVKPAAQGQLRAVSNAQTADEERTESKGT
Acyl-homoserine lactone acylase PvdQ, sequence (Q9I194 24-193 limits assumed): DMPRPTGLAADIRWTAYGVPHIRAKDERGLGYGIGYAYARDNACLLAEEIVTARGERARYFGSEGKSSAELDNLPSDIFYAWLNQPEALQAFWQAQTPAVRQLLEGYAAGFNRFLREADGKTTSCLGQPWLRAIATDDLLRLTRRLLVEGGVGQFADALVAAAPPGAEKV
Acyl-homoserine lactone acylase PvdQ, sequence (Q9I194 217-762 limits assumed): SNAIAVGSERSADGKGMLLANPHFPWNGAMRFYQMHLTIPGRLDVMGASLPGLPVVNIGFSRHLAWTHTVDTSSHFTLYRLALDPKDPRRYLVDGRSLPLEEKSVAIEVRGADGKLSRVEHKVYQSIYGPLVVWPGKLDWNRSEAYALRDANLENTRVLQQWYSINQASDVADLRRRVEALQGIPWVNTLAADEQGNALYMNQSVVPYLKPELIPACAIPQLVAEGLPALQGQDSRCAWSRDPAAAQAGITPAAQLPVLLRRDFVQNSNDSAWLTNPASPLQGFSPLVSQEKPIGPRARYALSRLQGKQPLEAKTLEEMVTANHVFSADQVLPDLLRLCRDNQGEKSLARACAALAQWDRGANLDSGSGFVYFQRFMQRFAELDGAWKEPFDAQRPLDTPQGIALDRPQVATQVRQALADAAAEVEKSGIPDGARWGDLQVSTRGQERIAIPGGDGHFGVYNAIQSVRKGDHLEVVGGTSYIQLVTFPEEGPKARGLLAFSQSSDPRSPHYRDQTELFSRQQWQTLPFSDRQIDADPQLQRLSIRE
Neurotensin receptor type 1, sequence (P30989 whole entry): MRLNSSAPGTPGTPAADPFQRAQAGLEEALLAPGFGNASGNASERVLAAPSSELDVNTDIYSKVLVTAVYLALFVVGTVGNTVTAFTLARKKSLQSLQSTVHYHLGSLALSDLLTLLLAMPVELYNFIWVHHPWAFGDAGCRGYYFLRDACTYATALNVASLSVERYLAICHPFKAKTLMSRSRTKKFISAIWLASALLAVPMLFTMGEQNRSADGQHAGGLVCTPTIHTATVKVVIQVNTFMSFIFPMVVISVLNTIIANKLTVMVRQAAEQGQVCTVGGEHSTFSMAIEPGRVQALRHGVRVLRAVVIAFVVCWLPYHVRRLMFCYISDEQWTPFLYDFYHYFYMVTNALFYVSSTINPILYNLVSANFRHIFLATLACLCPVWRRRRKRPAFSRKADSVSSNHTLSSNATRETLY
Luciferin 4-monooxygenase, sequence (P08659 whole entry): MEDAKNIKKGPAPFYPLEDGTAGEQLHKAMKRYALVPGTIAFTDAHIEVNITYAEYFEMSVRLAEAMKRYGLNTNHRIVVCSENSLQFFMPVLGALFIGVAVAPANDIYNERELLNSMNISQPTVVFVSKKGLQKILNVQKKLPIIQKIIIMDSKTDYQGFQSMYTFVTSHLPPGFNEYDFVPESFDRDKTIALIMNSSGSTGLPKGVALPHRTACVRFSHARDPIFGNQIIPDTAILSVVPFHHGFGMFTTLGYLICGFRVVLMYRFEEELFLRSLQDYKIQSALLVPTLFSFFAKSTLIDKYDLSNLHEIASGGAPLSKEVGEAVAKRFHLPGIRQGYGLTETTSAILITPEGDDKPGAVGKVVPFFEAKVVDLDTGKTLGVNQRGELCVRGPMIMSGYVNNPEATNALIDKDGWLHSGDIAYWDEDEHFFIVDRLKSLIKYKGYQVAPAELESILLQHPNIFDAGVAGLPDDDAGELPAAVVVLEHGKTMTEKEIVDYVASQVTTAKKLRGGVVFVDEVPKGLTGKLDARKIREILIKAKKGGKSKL

CCC(C)(C(=O)NC1CCCCC1)N(Cc1ccco1)C(=O)Cc1cccs1 (configuration not stated)
IC50 [1]: > 35 µM (not active)
IC50 [2]: 12.3 µM (not active)

O=C1Nc2ccccc2C12OCCS2 (configuration not stated)
IC50 (Estrogen receptor beta): > 50 µM (not active)

COc1ccc(C(=O)Nc2ccc3c(c2)OCCO3)cc1
EC50 (HT-1080): > 50 µM (not active)
EC50 [3]: < 0.2 µM (active)

O=[N+]([O-])c1cc(O/N=C/c2ccccc2)cc([N+](=O)[O-])c1
IC50 (NADPH oxidase 1): > 17 µM (not active)

CCCNc1nc(N2CCOCC2)nc(N2CCOCC2)n1
IC50 (Estrogen receptor beta): > 50 µM (not active)

Cc1cccc(CSCCNC(=O)COc2ccc(Cl)cc2)c1
EC50 [4]: > 195 µM (not active)
IC50 [5]: 13.3 µM (not active)

COc1ccc(S(=O)(=O)N2CCN(c3ccccc3OC)CC2)cc1OC
IC50 [6]: 23.3 µM (active)

C=CCn1c(SCc2c(C)noc2C)nnc1C1COc2ccccc2O1 (configuration not stated)
IC50 [6]: 24.7 µM (active)

Cc1ccc(-[n+]2c(-c3ccccc3)cn3c2CCc2ccccc2-3)c(C)c1
EC50 [7]: 96.9 µM (active)
EC50 [8]: 1.24 µM (active)
IC50 [9]: > 80 µM (inactive)
IC50 [1]: 5.9 µM (active)
IC50 [2]: 3.65 µM (active)
AC50 (INS1): 1.91 µM (active)

CCOC(=O)c1ccc(NC(=O)c2ccc(C)c(S(=O)(=O)N3CCOCC3)c2)cc1
AC50 [10]: 5.36 µM (active)
EC50 [11]: 17.3 µM (active)

COc1cccc(N2CCN(C3=C(Cl)C(=O)N(c4ccc(Cl)c(Cl)c4)C3=O)CC2)c1
IC50 (Bcl-2-related protein A1 [12]): 1.26 µM (active)
IC50 [13]: > 100 µM (not active)
IC50 (Bcl-2-related protein A1 [14]): 4.83 µM (active)

COc1ccc(-c2ccc(-c3noc(-c4cccs4)n3)c(OC)n2)cc1
EC50 (Estrogen receptor): 12.9 µM (active)

C[C@@H]1CN(C2=C(Cl)C(=O)N(c3ccc(Cl)c(Cl)c3)C2=O)[C@@H](C)CN1
IC50 (Bcl-2-related protein A1 [12]): 15.9 µM (active)
IC50 [13]: > 100 µM (not active)
IC50 (Bcl-2-related protein A1 [14]): 8.29 µM (active)

COC(=O)c1c(-c2ccncc2)csc1NC(=O)c1ccoc1C
EC50 (Estrogen receptor): 23.1 µM (active)
IC50 [15]: > 83.3 µM (inactive)
IC50 [16]: > 109 µM (inactive)

FC(F)(F)Oc1ccc(/C=N/Nc2c(Cl)cncc2Cl)cc1
IC50 (NADPH oxidase 1): > 17 µM (not active)

Fc1ccc(CNCc2cccc(Br)c2)cc1
AC50 [17]: 30.2 µM (active)

CN(C(=O)CN1C(=O)C2C3CC(C(Br)C3Br)C2C1=O)C1CCCCC1 (configuration not stated)
IC50 [18]: > 43.8 µM (not active)
IC50 [19]: 13.4 µM (not active)

COc1cccc(/C=N/NC(=O)c2cc3c(OC)ccc(OC)c3[nH]2)c1O
EC50 [20]: 1.23 µM (active)
EC50 (Streptococcus): 3.31 µM (active)
IC50 [21]: 16.3 µM (not active)
AC50 (INS1): 4.13 µM (active)
